What follows are compounds tested against T1, bradykinin 1 receptor (B1R) of the rat (Rattus norvegicus, UniProt P97583) (assay: Functional investigation on the rat bradykinin 1 receptor (B1R), Ca2+ FLIPR assay in CHO K1 rB1R cells). Conditions: B1R antagonism rat; test substance 10 μM; Ca2+ FLIPR, CHO K1 rB1R cells.
T1 construct: expressed in transfected cells; host or cells: CHO K1 cells
T1 sequence (P97583 1-337): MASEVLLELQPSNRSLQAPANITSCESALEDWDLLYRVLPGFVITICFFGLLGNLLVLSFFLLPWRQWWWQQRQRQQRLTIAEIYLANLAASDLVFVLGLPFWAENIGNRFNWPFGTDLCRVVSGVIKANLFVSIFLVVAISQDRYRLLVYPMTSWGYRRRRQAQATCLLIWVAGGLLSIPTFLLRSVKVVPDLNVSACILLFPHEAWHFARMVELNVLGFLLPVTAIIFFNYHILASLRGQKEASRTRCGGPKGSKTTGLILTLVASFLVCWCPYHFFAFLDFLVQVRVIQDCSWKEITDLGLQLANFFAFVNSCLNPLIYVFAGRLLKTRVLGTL
Format: cell-based
Outline: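 Peak Ca2+-dependent fluorescence in B1R-transfected CHO K1 cells measures antagonism of an EC80 agonist challenge given 10-20 min after compound. Agonist is Lys-Des-Arg9-bradykinin for human, Des-Arg9-bradykinin for rat receptor.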

For `CN(C)C(c1ccccc1)C1CCC(CNC(=O)COCC2CCCN(S(=O)(=O)c3ccccc3)C2)CC1` (stereo not shown) [Example 129, N((4((dimethylamino)(phenyl)methyl)cyclohexyl)methyl)-2-((1-(phenylsulfonyl)piperidin-3-yl)methoxy)acetamide], which “B1R Ant. r [10 μM] % Inhibition” value is on record?
Its value is 0%.

How did the “B1R Ant. r [10 μM] % Inhibition” value turn out when `Cc1ccc(S(=O)(=O)N(C)CCOCC(=O)NC2CCC(C(c3cccs3)N(C)C)CC2)cc1` (stereo not shown) [Example 168, N-(4-((dimethylamino) (thiophen-2-yl)methyl)cyclohexyl)-2-(2-(N,4-dimethylphenylsulfamido)ethoxy)acetamide] was run?
The value was 16%.

`COc1cc(C)c(S(=O)(=O)N(CCOCC(=O)NCC2CCC(C(c3ccccc3)N(C)C)CC2)Cc2ccccc2)c(C)c1C` (stereo not shown) [Example 201] was tested. Which “B1R Ant. r [10 μM] % Inhibition” value did it give?
The value was 7%.

For `CN(C)C(c1cccc(F)c1)C1CCC(CCNC(=O)COCC2CCCN2S(=O)(=O)c2ccc(Cl)c(Cl)c2)CC1` (stereo not shown) [Example 202], which “B1R Ant. r [10 μM] % Inhibition” value is on record?
Its value is −15%.

For `COc1ccc(S(=O)(=O)N2CCCCC2CCOCC(=O)NCC2CCC(C(c3cccc(F)c3)N(C)C)CC2)cc1` (stereo not shown) [Example 203], which “B1R Ant. r [10 μM] % Inhibition” value is on record?
The value was 55%.

With `CN(C)C(c1cccc(F)c1)C1CCC(NC(=O)COC2CCN(S(=O)(=O)c3ccc(Cl)cc3)C2)CC1` (stereo not shown) [Example 204] as the compound, how does the “B1R Ant. r [10 μM] % Inhibition” value read?
The value was −13%.

How did the “B1R Ant. r [10 μM] % Inhibition” value turn out when `CN(C)C(c1cccc(F)c1)C1CCC(NC(=O)COCCN(C)S(=O)(=O)c2ccc(F)cc2)CC1` (stereo not shown) [Example 205] was run?
The value was 5%.

With `COc1ccc(S(=O)(=O)N(C)CCOCC(=O)NC2CCC(C(c3cccs3)N(C)C)CC2)cc1OC` (stereo not shown) [Example 206] as the compound, how does the “B1R Ant. r [10 μM] % Inhibition” value read?
Its value is 20%.

For `CN(C)C(c1ccc(Cl)cc1)C1CCC(CNC(=O)COCCN(C)S(=O)(=O)c2c(Cl)cccc2Cl)CC1` (stereo not shown) [Example 207], which “B1R Ant. r [10 μM] % Inhibition” value is on record?
Its value is 52%.

Which “B1R Ant. r [10 μM] % Inhibition” value does the source give for `CN(C)C(c1cccc(F)c1)C1CCC(NC(=O)COCCN(C)S(=O)(=O)c2c(Cl)cc(Cl)cc2Cl)CC1` (stereo not shown) [Example 208] here?
Its value is 25%.

For `CCN(CCOCC(=O)NCCC1CCC(C(c2cccc(F)c2)N(C)C)CC1)S(=O)(=O)c1c(C)cc(OC)c(C)c1C` (stereo not shown) [Example 209], which “B1R Ant. r [10 μM] % Inhibition” value is on record?
The value was 60%.

For `CN(C)C(c1cccc(F)c1)C1CCC(NC(=O)COCC2CCCN2S(=O)(=O)c2ccc(Cl)c(Cl)c2)CC1` (stereo not shown) [Example 211], which “B1R Ant. r [10 μM] % Inhibition” value is on record?
The value was 10%.

`COc1ccc(S(=O)(=O)N2CCCCC2CCOCC(=O)NC2CCC(C(c3ccc(F)cc3)N(C)C)CC2)cc1` (stereo not shown) [Example 212] was tested. Which “B1R Ant. r [10 μM] % Inhibition” value did it give?
The value was 41%.

How did the “B1R Ant. r [10 μM] % Inhibition” value turn out when `COc1ccc(S(=O)(=O)N2CCCCC2CCOCC(=O)NCCC2CCC(C(c3cccc(F)c3)N(C)C)CC2)cc1` (stereo not shown) [Example 213] was run?
Its value is 49%.

For `CN(C)C(c1cccs1)C1CCC(CCNC(=O)COC2CCCCC2N(C)S(=O)(=O)c2ccc(Cl)c(Cl)c2)CC1` (stereo not shown) [Example 214], which “B1R Ant. r [10 μM] % Inhibition” value is on record?
Its value is 19%.

With `CN(C)C(c1cccc(F)c1)C1CCC(CCNC(=O)COCCN(C)S(=O)(=O)c2ccc(OC(F)(F)F)cc2)CC1` (stereo not shown) [Example 215] as the compound, how does the “B1R Ant. r [10 μM] % Inhibition” value read?
Its value is 22%.

With `Cc1ccc(S(=O)(=O)N2CCC(OCC(=O)NCCC3CCC(C(c4cccc(F)c4)N(C)C)CC3)C2)cc1` (stereo not shown) [Example 216] as the compound, how does the “B1R Ant. r [10 μM] % Inhibition” value read?
Its value is 12%.

`CN(C)C(c1cccc(F)c1)C1CCC(NC(=O)COCCN(C)S(=O)(=O)c2ccc(Cl)cc2Cl)CC1` (stereo not shown) [Example 217] was tested. Which “B1R Ant. r [10 μM] % Inhibition” value did it give?
The value was 47%.

Which “B1R Ant. r [10 μM] % Inhibition” value does the source give for `CN(C)C(c1cccc(F)c1)C1CCC(CCNC(=O)COCCN(C)S(=O)(=O)c2ccc(F)cc2)CC1` (stereo not shown) [Example 218] here?
The value was 28%.

Which “B1R Ant. r [10 μM] % Inhibition” value does the source give for `CN(C)C(c1ccccc1)C1CCC(CNC(=O)COC2CCN(S(=O)(=O)c3ccc(F)cc3)C2)CC1` (stereo not shown) [Example 219] here?
Its value is 14%.

How did the “B1R Ant. r [10 μM] % Inhibition” value turn out when `CN(C)C(c1cccc(F)c1)C1CCC(CNC(=O)COCC2CCCN(S(=O)(=O)c3ccccc3)C2)CC1` (stereo not shown) [Example 220] was run?
The value was 7%.

`COc1cc(C)c(S(=O)(=O)N2CCCC(OCC(=O)NCCC3CCC(C(c4cccc(F)c4)N(C)C)CC3)C2)c(C)c1C` (stereo not shown) [Example 221] was tested. Which “B1R Ant. r [10 μM] % Inhibition” value did it give?
The value was 17%.

How did the “B1R Ant. r [10 μM] % Inhibition” value turn out when `COc1cc(C)c(S(=O)(=O)N2CCN(CCOCC(=O)NC3CCC(C(c4ccc(F)cc4)N(C)C)CC3)CC2)c(C)c1C` (stereo not shown) [Example 222] was run?
Its value is 10%.

For `COc1cc(C)c(S(=O)(=O)N2CCN(CCOCC(=O)NCC3CCC(C(c4cccc(F)c4)N(C)C)CC3)CC2)c(C)c1C` (stereo not shown) [Example 223], which “B1R Ant. r [10 μM] % Inhibition” value is on record?
Its value is −5%.

`COc1ccc(S(=O)(=O)N2CCCC2COCC(=O)NCCC2CCC(C(c3cccc(F)c3)N(C)C)CC2)cc1` (stereo not shown) [Example 224] was tested. Which “B1R Ant. r [10 μM] % Inhibition” value did it give?
Its value is 47%.

`CN(C)C(c1cccc(F)c1)C1CCC(CNC(=O)COC2CCN(S(=O)(=O)c3ccc(Cl)cc3Cl)C2)CC1` (stereo not shown) [Example 225] was tested. Which “B1R Ant. r [10 μM] % Inhibition” value did it give?
The value was 17%.

With `Cc1ccc(S(=O)(=O)N(C)CCOCC(=O)NC2CCC(C(c3cccc(F)c3)N(C)C)CC2)cc1` (stereo not shown) [Example 226] as the compound, how does the “B1R Ant. r [10 μM] % Inhibition” value read?
The value was 24%.

With `Cc1ccc(S(=O)(=O)N(C)CCOCC(=O)NCC2CCC(C(c3cccc(F)c3)N(C)C)CC2)cc1` (stereo not shown) [Example 227] as the compound, how does the “B1R Ant. r [10 μM] % Inhibition” value read?
Its value is 12%.

Which “B1R Ant. r [10 μM] % Inhibition” value does the source give for `COc1cc(C)c(S(=O)(=O)N(C)CCOCC(=O)NC2CCC(C(c3cccc(F)c3)N(C)C)CC2)c(C)c1` (stereo not shown) [Example 228] here?
Its value is 99%.

With `CN(C)C(c1cccc(F)c1)C1CCC(CNC(=O)COCCN(C)S(=O)(=O)c2ccc(F)cc2)CC1` (stereo not shown) [Example 229] as the compound, how does the “B1R Ant. r [10 μM] % Inhibition” value read?
Its value is 8%.

With `CN(C)C(c1cccs1)C1CCC(CCNC(=O)COC2CCN(S(=O)(=O)c3ccccc3)CC2)CC1` (stereo not shown) [Example 230] as the compound, how does the “B1R Ant. r [10 μM] % Inhibition” value read?
Its value is −1%.

Which “B1R Ant. r [10 μM] % Inhibition” value does the source give for `CCN(CCOCC(=O)NCC1CCC(C(c2ccccc2)N(C)C)CC1)S(=O)(=O)c1c(C)cc(OC)c(C)c1C` (stereo not shown) [Example 231] here?
Its value is 29%.

Which “B1R Ant. r [10 μM] % Inhibition” value does the source give for `COc1cc(C)c(S(=O)(=O)N2CCC(OCC(=O)NCCC3CCC(C(c4cccc(F)c4)N(C)C)CC3)CC2)c(C)c1C` (stereo not shown) [Example 232] here?
The value was 5%.

`COc1ccc(S(=O)(=O)N2Cc3ccccc3CC2COCC(=O)NC2CCC(C(c3ccc(F)cc3)N(C)C)CC2)cc1` (stereo not shown) [Example 234] was tested. Which “B1R Ant. r [10 μM] % Inhibition” value did it give?
The value was 20%.

Which “B1R Ant. r [10 μM] % Inhibition” value does the source give for `Cc1cc(C)c(S(=O)(=O)N(C)CCOCC(=O)NC2CCC(C(c3cccs3)N(C)C)CC2)c(C)c1` (stereo not shown) [Example 235] here?
Its value is −8%.

For `COc1cc(C)c(S(=O)(=O)N(C)CCOCC(=O)NC2CCC(C(c3ccccc3)N(C)C)CC2)c(C)c1` (stereo not shown) [Example 239], which “B1R Ant. r [10 μM] % Inhibition” value is on record?
The value was 97%.

`Cc1ccc(S(=O)(=O)N(C)CCOCC(=O)NCCC2CCC(C(c3cccc(F)c3)N(C)C)CC2)cc1` (stereo not shown) [Example 240] was tested. Which “B1R Ant. r [10 μM] % Inhibition” value did it give?
The value was −14%.

How did the “B1R Ant. r [10 μM] % Inhibition” value turn out when `CN(C)C(c1ccc(Cl)cc1)C1CCC(CCNC(=O)COCCN(C)S(=O)(=O)c2ccc(F)cc2)CC1` (stereo not shown) [Example 241] was run?
The value was 8%.

With `COc1ccc(S(=O)(=O)N(C)CCOCC(=O)NCC2CCC(C(c3ccccc3)N(C)C)CC2)cc1` (stereo not shown) [Example 242] as the compound, how does the “B1R Ant. r [10 μM] % Inhibition” value read?
Its value is 22%.

Which “B1R Ant. r [10 μM] % Inhibition” value does the source give for `COc1ccc(S(=O)(=O)N2CCCCC2COCC(=O)NC2CCC(C(c3cccs3)N(C)C)CC2)cc1` (stereo not shown) [Example 243] here?
The value was 27%.

For `CN(C)C(c1ccc(F)cc1)C1CCC(CCNC(=O)COC2CCCCC2N(C)S(=O)(=O)c2ccc(Cl)c(Cl)c2)CC1` (stereo not shown) [Example 244], which “B1R Ant. r [10 μM] % Inhibition” value is on record?
Its value is −5%.

With `CN(C)C(c1cccc(F)c1)C1CCC(NC(=O)COCCN(C)S(=O)(=O)c2ccc(OC(F)(F)F)cc2)CC1` (stereo not shown) [Example 246] as the compound, how does the “B1R Ant. r [10 μM] % Inhibition” value read?
The value was 15%.

Which “B1R Ant. r [10 μM] % Inhibition” value does the source give for `CN(C)C(c1cccc(F)c1)C1CCC(CCNC(=O)COC2CCN(S(=O)(=O)c3ccc(Cl)cc3)C2)CC1` (stereo not shown) [Example 247] here?
Its value is 8%.
